The nature of series [1]: Drug level in mouse brain at 5 mg/kg, iv after 1 hr. The series is classed as ADME, organism-based. The arrangement: dose 5 mg/kg, route intravenous. The following applies: read-out: Drug uptake.
A further series can be described thus: physchem. The following applies: buffer, pH 7.4.
Series [2] in a line: Volume of distribution in mouse at 5 mg/kg, iv and 10 mg/kg, po. The series is classed as ADME, organism-based. The following applies: in vivo.
Series [3] can be described thus: Tmax in mouse at 5 mg/kg, iv and 10 mg/kg, po. The series is classed as ADME, organism-based. The following applies: in vivo.
Series [4] in a line: AUC in mouse at 10 mg/kg, po. The series is classed as ADME, organism-based. The arrangement: dose 10 mg/kg, route oral. The following applies: plasma.
In the next series the test system is Caco-2. Description: Apparent permeability across human Caco-2 cells. Type of series: ADME, cell-based.
Series [5] is described as follows: Oral bioavailability in mouse at 10 mg/kg. Type of series: ADME, organism-based. The following applies: in vivo.
Series [6] is described as follows: Ratio of drug level in brain to plasma in mouse at 5 mg/kg, iv after 4 hrs. Type of series: ADME, organism-based. The arrangement: dose 5 mg/kg, route intravenous.
Series [7] is described as follows: Cmax in mouse at 5 mg/kg, iv and 10 mg/kg, po. Type of series: ADME, organism-based. The following applies: in vivo.
Series [8] in a line: Ratio of drug level in brain to plasma in mouse at 5 mg/kg, iv after 1 hr. The arrangement: dose 5 mg/kg, route intravenous. Type of series: ADME, organism-based.
The nature of series [9]: Drug level in mouse brain at 5 mg/kg, iv after 4 hrs. The arrangement: dose 5 mg/kg, route intravenous. The series is classed as ADME, organism-based. The following applies: read-out: Drug uptake.

Usually logD stands for lipophilicity at a set pH, counting ionised and neutral species. A higher logD goes with a more lipophilic compound. One may read the Tmax as the time from dosing to the highest level. By AUC is commonly meant the area under the concentration-time curve, a measure of exposure. Read a low AUC as low exposure. The Papp is a coefficient for how fast a substance crosses the barrier. Usually bioavailability stands for dose-corrected exposure relative to a reference, in per cent. As a reminder, the Kp is tissue or fluid exposure divided by exposure in the circulation. Usually Cmax stands for the highest concentration seen after dosing. On to `CC(C)[C@H](NC(=O)CCN(C)C)c1cc(Cl)ccc1N1CCN(C(=O)[C@H](C)Cc2ccc(Cl)cc2)CC1`, for which the concentration at 1 h in series [1] came to 580 ng/g. For the same compound, the logD in “physchem” amounted to 4. The same compound registered a Vd in series [2] of 11 L/kg. In series [3], the Tmax was 60 min. For the same compound, the area under the curve (AUC) in series [4] came to 600 ng·h/mL. Further, in the series on Caco-2, the apparent permeability coefficient (Papp) is given as 9 ×10⁻⁶ cm/s. Moreover, the bioavailability in series [5] worked out at 19%. The Kp at 4 h in [6] is 2.3. The same compound returned a Cmax in series [7] of 109 ng/mL. Besides, in [8], the concentration ratio (Kp) at 1 h stood at 1.9. Besides, the concentration at 4 h in [9] stood at 176 ng/g.
Take `COc1cc(Cl)ccc1C[C@@H](C)C(=O)N1CCN(c2ccc(Cl)cc2[C@@H](NC(=O)C2CNC2)C(C)C)CC1`: in [1], the concentration at 1 h worked out at 61 ng/g. Besides, the logD in the series “physchem” came out at 2.3. This compound showed a Vd in [2] of 8.2 L/kg. Further, the time to peak (Tmax) in series [3] came out at 120 min. The compound further showed an AUC in [4] of 422 ng·h/mL. Also, in the series with Caco-2, the apparent permeability (Papp) is 0.3 ×10⁻⁶ cm/s. Also, the bioavailability in series [5] worked out at 5.8%. For the same compound, the concentration ratio (Kp) at 4 h in [6] stood at 0.4. In [7], this compound displayed a Cmax of 151 ng/mL. Further, the Kp at 1 h in series [8] was determined as 0.1. The concentration at 4 h in [9] came out at 39 ng/g.
Turning to `CNCC(=O)N[C@H](c1cccc(F)c1N1CCN(C(=O)[C@H](C)Cc2ccc(Cl)cc2)CC1)C(C)C`, the concentration at 1 h in [1] was determined as 231 ng/g. Besides, the logD in “physchem” turned out to be 2.4. In [2], this compound registered a Vd of 19 L/kg. The Tmax in series [3] is 30 min. Also, the AUC in series [4] stood at 813 ng·h/mL. Further, the Papp with Caco-2 turned out to be 1 ×10⁻⁶ cm/s. Also, the bioavailability in series [5] was determined as 21%. Further, in [6], the Kp at 4 h was 1.1. In [7], this compound gave a peak concentration (Cmax) of 165 ng/mL. The Kp at 1 h in series [8] came to 0.6. In addition, in series [9], the concentration at 4 h was 126 ng/g.
In the case of `COc1cc(Cl)ccc1C[C@@H](C)C(=O)N1CCN(c2ccc(Cl)cc2[C@@H](NC(=O)[C@@H](C)N)C(C)C)CC1`, the concentration at 1 h in [1] turned out to be 95 ng/g. The compound further showed a pH-dependent lipophilicity (logD) in “physchem” of 4.5. In [2], the Vd came to 16 L/kg. Also, in [3], the time of peak concentration (Tmax) came to 15 min. In series [4], this compound returned an AUC of 397 ng·h/mL. In addition, the Papp in the series with Caco-2 was determined as 3 ×10⁻⁶ cm/s. The compound also displayed a bioavailability in [5] of 16%. Also, the partition ratio (Kp) at 4 h in series [6] turned out to be 1. The maximum concentration (Cmax) in series [7] amounted to 143 ng/mL. For the same compound, the Kp at 1 h in [8] was found to be 0.4. Further, the concentration at 4 h in series [9] came to 59 ng/g.
On to `COc1cc(Cl)ccc1C[C@@H](C)C(=O)N1CCN(c2c(F)cccc2[C@@H](NC(=O)C2CNC2)C(C)C)CC1`, for which the concentration at 1 h in [1] is 51 ng/g. In “physchem”, this compound displayed a logD of 2.6. For the same compound, the Vd in series [2] came to 10 L/kg. For the same compound, the time to peak (Tmax) in series [3] is 120 min. In addition, the AUC in series [4] was 336 ng·h/mL. In addition, in the series on Caco-2, the apparent permeability coefficient (Papp) is 0.2 ×10⁻⁶ cm/s. The bioavailability in series [5] is 5.6%. Besides, the Kp at 4 h in series [6] was 0.4. The concentration in series [7] peaked (Cmax) at 104 ng/mL. The Kp at 1 h in series [8] was found to be 0.1. Also, the concentration at 4 h in series [9] worked out at 32 ng/g.
On to `CNCC(=O)N[C@H](c1cc(Cl)ccc1N1CCN(C(=O)[C@H](C)Cc2ccc(Cl)cc2OC)CC1)C(C)C`, for which the concentration at 1 h in [1] amounted to 334 ng/g. In the series “physchem”, this compound showed a logD of 3.5. Also, the Vd in [2] came out at 11 L/kg. Also, the Tmax in series [3] stood at 30 min. The same compound showed an area under the curve (AUC) in series [4] of 208 ng·h/mL. In series [5], this compound showed a bioavailability of 8%. For the same compound, the partition ratio (Kp) at 4 h in series [6] was found to be 1.3. The same compound displayed a maximum concentration (Cmax) in series [7] of 55 ng/mL. For the same compound, the Kp at 1 h in [8] was 1.3. Moreover, the concentration at 4 h in series [9] came out at 102 ng/g.
Take `CNCC(=O)N[C@H](c1cc(C)ccc1N1CCN(C(=O)[C@H](C)Cc2ccc(Cl)cc2F)CC1)C(C)C`: the concentration at 1 h in series [1] is 59 ng/g. This compound displayed a logD in the series “physchem” of 4. In [2], this compound had a Vd of 3 L/kg. In series [3], the Tmax was determined as 120 min. In series [4], this compound had an AUC of 2290 ng·h/mL. The Papp with Caco-2 was determined as 8 ×10⁻⁶ cm/s. In series [5], this compound returned a bioavailability of 30%. Besides, the Kp at 4 h in series [6] was found to be 0.2. For the same compound, the peak level in [7] (Cmax) was 632 ng/mL. The Kp at 1 h in [8] was determined as 0.1. Moreover, the concentration at 4 h in [9] came to 42 ng/g.
In the case of `CC(C)[C@H](NC(=O)C1CN(C)C1)c1cc(Cl)ccc1N1CCN(C(=O)[C@H](C)Cc2ccc(Cl)cc2)CC1`, the concentration at 1 h in series [1] amounted to 79 ng/g. Also, the logD in “physchem” stood at 3. In series [2], this compound yielded a Vd of 3 L/kg. In addition, the Tmax in [3] came out at 360 min. The compound further registered an area under the curve (AUC) in series [4] of 9160 ng·h/mL. Besides, in the series with Caco-2, the Papp is 2 ×10⁻⁶ cm/s. This compound returned a bioavailability in [5] of 58%. Also, the Kp at 4 h in series [6] is 0.1. Further, the Cmax in [7] was found to be 762 ng/mL. Besides, in series [8], the Kp at 1 h turned out to be 0.1. Besides, in series [9], the concentration at 4 h amounted to 77 ng/g.
With `CNCC(=O)N[C@H](c1cccc(F)c1N1CCN(C(=O)[C@H](C)Cc2ccc(Cl)cc2OC)CC1)C(C)C`, the logD in “physchem” turned out to be 3.1. In [2], this compound yielded a Vd of 29 L/kg. The time to peak (Tmax) in series [3] turned out to be 30 min. The compound further had an area under the curve (AUC) in series [4] of 374 ng·h/mL. Further, the Papp in the series with Caco-2 was determined as 2 ×10⁻⁶ cm/s. The bioavailability in [5] is 12%. For the same compound, in series [6], the Kp at 4 h worked out at 1.7. In [7], this compound yielded a peak concentration (Cmax) of 114 ng/mL. For the same compound, the concentration ratio (Kp) at 1 h in [8] is 0.5. Further, the concentration at 4 h in series [9] is 107 ng/g.
Turning to `CNCCN[C@H](c1cc(C)ccc1N1CCN(C(=O)[C@H](C)Cc2ccc(Cl)cc2F)CC1)C(C)C`, in “physchem”, the logD amounted to 2.5. In addition, in the series on Caco-2, the apparent permeability (Papp) is 3 ×10⁻⁶ cm/s.
For `CNCCC(=O)N[C@H](c1cc(C)ccc1N1CCN(C(=O)[C@H](C)Cc2ccc(Cl)cc2)CC1)C(C)C` the same measures were 2.7 and 12 ×10⁻⁶ cm/s.
`CNCCN[C@H](c1cccc(F)c1N1CCN(C(=O)[C@H](C)Cc2ccc(Cl)cc2)CC1)C(C)C`: the concentration at 1 h in [1] was 53 ng/g. The compound also had a logD in the series “physchem” of 2.6. Further, the Vd in series [2] was determined as 52 L/kg. In addition, the Tmax in series [3] came out at 30 min. For the same compound, in [4], the area under the curve (AUC) came to 1630 ng·h/mL. Moreover, in the series on Caco-2, the Papp came out at 0.4 ×10⁻⁶ cm/s. Further, the bioavailability in [5] turned out to be 47%. The concentration ratio (Kp) at 4 h in series [6] worked out at 1.2. Further, the Cmax in series [7] stood at 166 ng/mL. For the same compound, in series [8], the concentration ratio (Kp) at 1 h is 0.4. For the same compound, the concentration at 4 h in series [9] was determined as 62 ng/g.
In “physchem”, `CNCC(=O)N[C@H](c1cc(Cl)ccc1N1CCN(C(=O)[C@H](C)Cc2ccc(Cl)cc2)CC1)C(C)C` returned a log distribution coefficient (logD) of 4.3. The same compound displayed a Vd in [2] of 16 L/kg. Besides, the time of peak concentration (Tmax) in [3] was found to be 30 min. The compound further gave an AUC in series [4] of 232 ng·h/mL. The compound further came in with a bioavailability in series [5] of 13%. The Kp at 4 h in [6] is 1.5. In [7], this compound came in with a Cmax of 88 ng/mL. The concentration ratio (Kp) at 1 h in [8] was determined as 0.7. For the same compound, in series [9], the concentration at 4 h turned out to be 62 ng/g.
As to `Cc1ccc(N2CCN(C(=O)[C@H](C)Cc3ccc(Cl)cc3C)CC2)c([C@@H](NC(=O)CCN(C)C)C(C)C)c1`, in “physchem”, the pH-dependent lipophilicity (logD) turned out to be 4. For the same compound, the Papp in the series on Caco-2 amounted to 16 ×10⁻⁶ cm/s.
In the same order, the values of `Cc1ccc(N2CCN(C(=O)[C@H](C)Cc3ccc(Cl)cc3)CC2)c([C@@H](NC(=O)CCN)C(C)C)c1` are 2.4 and 3 ×10⁻⁶ cm/s.
As to `CNCC(=O)N[C@H](c1cccc(F)c1N1CCN(C(=O)[C@H](C)Cc2ccc(Cl)cc2Cl)CC1)C(C)C`, the concentration at 1 h in series [1] was 85 ng/g. Also, in “physchem”, the logD was 4.3. In series [2], this compound gave a Vd of 13 L/kg. For the same compound, the Tmax in series [3] turned out to be 120 min. The same compound gave an area under the curve (AUC) in [4] of 1010 ng·h/mL. In the series on Caco-2, the Papp was 2 ×10⁻⁶ cm/s. The same compound yielded a bioavailability in series [5] of 23%. Also, in series [6], the concentration ratio (Kp) at 4 h amounted to 0.5. Further, the maximum concentration (Cmax) in [7] is 172 ng/mL. For the same compound, the Kp at 1 h in series [8] is 0.3. Also, in [9], the concentration at 4 h was found to be 71 ng/g.

The values are drawn from ChEMBL document CHEMBL1150275, “Pharmacological and pharmacokinetic characterization of 2-piperazine-alpha-isopropyl benzylamine derivatives as melanocortin-4 receptor antagonists” (Bioorg Med Chem, 2008).
